Source: patent publication US9346758B2, “Pyridinone compounds for use in photodynamic therapy” (UNIVERSITY OF EXETER, priority 2012, dated 2016)
“And” between values parts separate entries of the source, which are not always exact repeats. Equal entries are not always repeated.

Experiments:
[1] = test system: human glioblastoma cells (U87MG); assay: PpIX fluorescence accumulation; format: cell-based; conditions: for PpIX accumulation (fluorescence): hydrochloride
Procedure: (§1) Briefly, cells were seeded at 2×10^4 cells per well in a 96 well plate and left to adhere overnight. Test solutions were prepared on the day of the assay and applied to the cells. The level of PpIX produced was monitored using a multi-well fluorescent plate reader with a 400 (±30) nm excitation filter and a 645 (±40) nm emission filter, with the level of fluorescence produced being directly proportional to the level of PpIX present. Readings were taken hourly for 6 hours and were conducted under low light conditions to reduce photobleaching of PpIX.
(§2) These were tested alongside equimolar concentrations of ALA, ALA and CP94 (3), MAL, and MAL and CP94 (3), with all test compounds being investigated in human dermal fibroblasts (84BR; FIGS. 2A and 2B), human epithelial squamous cell carcinoma cells (A431; FIGS. 3A and 3B) and human glioblastoma cells (U87MG; FIGS. 4A and 4B).

[2] = test system: human epithelial squamous cell carcinoma cells (A431); assay: PDT efficacy: cell viability (NRU assay) following irradiation; format: cell-based
Procedure: (§3) To assess the effect of AP2-18 (8) on PpIX-induced PDT efficacy, the same three cell types were exposed to equimolar concentrations of ALA, ALA and CP94 (3), MAL, MAL and CP94 (3), and AP2-18 (8) (as described previously) and incubated in the dark for 4 hours. The level of PpIX accumulation was then quantified as before, prior to irradiation with red light (37 J/cm^2; 635±2 nm; Aktilite, Galderma, UK).

[3] = test system: human glioblastoma cells (U87MG); assay: as above; format: cell-based
Procedure: as §3

[4] = test system: human epithelial squamous cell carcinoma cells (A431); assay: Cell viability (NRU assay) after irradiation with varying incubation periods (2, 3 or 4 hours); format: cell-based; conditions: for cell viability: A431 cells, then red light 37 J/cm^2, NRU assay, individual replicates, hydrochloride
Procedure: Neutral red is an inert dye actively taken up and stored by viable (living) cells, an action which is unable to be performed by non-viable cells, therefore the level of neutral red taken up is directly proportional to the number of viable cells present following a given exposure. Following uptake of the dye, cells are lysed and the level of neutral red quantified using a plate reader.
After the relevant incubation period, the cells were irradiated with red light (37 J/cm^2; 635±2 nm; Aktilite, Galderma, UK).

[5] = test system: human dermal fibroblasts (84BR); assay: PpIX fluorescence accumulation; conditions: 250-1000 μM, up to 6 hours
Procedure: as §1, §2

[6] = test system: human epithelial squamous cell carcinoma cells (A431); assay: PpIX fluorescence accumulation; conditions: for PpIX accumulation: A431 cells, hydrochloride;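 for all read-outs here: PpIX fluorescence accumulating inside A431 cells, read under dim light to limit photobleaching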
Procedure: as §1, §2

[7] = test system: human dermal fibroblasts (84BR); assay: PDT efficacy: cell viability (NRU assay) following irradiation; conditions: 84BR; lowest concentration employed (250 μM)
Procedure: as §3

[8] = test system: human epithelial squamous cell carcinoma cells (A431); assay: PpIX fluorescence after varying incubation periods (2, 3 or 4 hours); conditions: for PpIX fluorescence: A431 cells, individual replicates, hydrochloride
Procedure: as §1

CCc1c(O)c(O)cc[n+]1CCOC(=O)CCC(=O)CN.Cl.[Cl-] [AP2-18, 1-(2-(5-amino-4-oxopentanoyloxy)ethyl)-2-ethyl-3,4-dihydroxypyridinium chloride hydrochloride]
PpIX accumulation (fluorescence) ([1]; 250 μM (combinations: 250 μM each), exposure time 2 hours): 114.3 and 128.3 and 146.3 and 125.67 and 126.67 and 129.67 and 130.67 and 128.67
PpIX accumulation (fluorescence) ([1]; 250 μM (combinations: 250 μM each), exposure time 3 hours): 172 and 199 and 221 and 195 and 196 and 189.33 and 195.33 and 184.33
PpIX accumulation (fluorescence) ([1]; 500 μM (combinations: 500 μM each), exposure time 3 hours): 312 and 308 and 267 and 279 and 251.33 and 271.33 and 273.33
PpIX accumulation (fluorescence) ([1]; 1000 μM (combinations: 1000 μM each), exposure time 4 hours): 519 and 469 and 361 and 447 and 468 and 478 and 456 and 499
PpIX accumulation vs ALA or MAL alone or with CP94 ([1]; 250-1000 μM, up to 6 hours): significantly increase PpIX accumulation
reduction in cell viability following PDT [2]: significant reductions in cell viability
PpIX-induced PDT cell kill [3]: highly effective PpIX-induced PDT cell kill
cell kill on irradiation compared with ALA or MAL ([4]; A431, incubation 2, 3 or 4 hours, greatest cytotoxicity at 4 hours): statistically significant increases in cell kill
cell viability ([4]; 250 μM (each drug), incubation time 2 hours, 250 µM): 97.7 and 86.79 and 91.73 and 133.2414 and 62.66 and 106.5847 and 64.29 and 96.8 and 131.2186
cell viability ([4]; 250 μM (each drug), incubation time 3 hours, 250 µM): 86.93 and 101.2448 and 79.7 and 62.46 and 60.17 and 62.3481 and 33.56 and 37.89 and 49.02 and 32.65 and 47.7341 and 52.75
cell viability ([4]; 250 μM (each drug), incubation time 4 hours, 250 µM): 7.088 and 6.582 and 5.929 and 7.34 and 6.99 and 6.52 and 32.03 and 32.79 and 31.11
cell viability ([4]; 500 μM (each drug), incubation time 2 hours, 500 µM): 12.86 and 12.74 and 16.04 and 53.68 and 42.01 and 55.47 and 60.64 and 70.31 and 124.24
cell viability ([4]; 500 μM (each drug), incubation time 3 hours, 500 µM): 102.5418 and 125.9215 and 67.1 and 33.04 and 31.45 and 38.59 and 68.88 and 42.19 and 58.38 and 49.61 and 46.3628 and 69.56
cell viability ([4]; 500 μM (each drug), incubation time 4 hours, 500 µM): 6.023 and 6.336 and 6.646 and 7.159 and 7.63 and 6.693 and 42.88 and 32.5727 and 25.11
cell viability ([4]; 1000 μM (each drug), incubation time 2 hours, 1000 µM): 96.31 and 83.65 and 82.62 and 98.19 and 107.1891 and 53.91 and 80.39 and 46.21 and 97.83
cell viability ([4]; 1000 μM (each drug), incubation time 3 hours, 1000 µM): 92.47 and 93.28 and 87.85 and 39.73 and 38.74 and 37.68 and 45.15 and 47.25 and 41.05 and 50.59 and 59.84 and 82.37
cell viability ([4]; 1000 μM (each drug), incubation time 4 hours, 1000 µM): 6.315 and 6.002 and 5.891 and 7.607 and 8.758 and 7.362 and 38.09 and 34.2 and 25.3
PpIX accumulation vs ALA or MAL alone or with CP94 [5]: significantly increase PpIX accumulation
PpIX accumulation vs ALA or MAL alone or with CP94 ([6]; A431, 250-1000 μM, up to 6 hours): significantly increase PpIX accumulation
PpIX accumulation ([6]; 500 μM (each component), exposure time 1 hour): 21.33 and 33.67 and 22.67 and 28.67 and 33 and 32 and 29
PpIX accumulation ([6]; 1000 μM (each component), exposure time 1 hour): 41.33 and 38.33 and 49.33 and 33.67 and 34.67 and 36.67 and 49 and 51
PpIX accumulation ([6]; 1000 μM (each component), exposure time 2 hours): 58.33 and 69.33 and 58.67 and 63.67 and 78.67 and 97.67 and 93.67
reducing cell viability following PDT vs other treatment parameters [7]: significantly better
PpIX vs highest doses of ALA or MAL (1000 μM) at 4 hours ([8]; A431, 250 μM, 2 hours incubation): produced more PpIX
PpIX levels vs other treatment parameters ([8]; A431, 1000 μM, four hours incubation): statistically significant higher PpIX levels than any other treatment parameters investigated
PpIX fluorescence ([8]; 500 μM (each drug), incubation time 2 hours): 35.33 and 33.33 and 57.67 and 49.67 and 55.67 and 58.67 (2×) and 69.67 and 58.33
PpIX fluorescence ([8]; 500 μM (each drug), incubation time 3 hours): 59.33 and 67.33 and 62.33 and 114.33 (2×) and 109.33 and 119.67 and 139.67 and 118.67
PpIX fluorescence ([8]; 500 μM (each drug), incubation time 4 hours): 71.67 and 82.67 and 73.67 and 137.67 and 136.67 and 140.67 and 151.67 and 177.67 and 146.67
PpIX fluorescence ([8]; 1000 μM (each drug), incubation time 2 hours): 58.33 and 69.33 and 58.67 (2×) and 63.67 and 78.67 and 97.67 and 93.67 (2×)
PpIX fluorescence ([8]; 1000 μM (each drug), incubation time 3 hours): 96.33 and 100.33 and 116.33 and 117.33 and 114.33 and 118.33 and 144.67 and 180.67 and 182.67
PpIX fluorescence ([8]; 1000 μM (each drug), incubation time 4 hours): 113.67 and 119.67 and 140.67 and 145.67 and 139.67 and 141.67 and 177.67 and 221.67 and 225.67
